Earlier results in patent US20070141150A1, “Pharmaceutical composition” (priority 2003, published 2007).
Counter-ions that a name gives are not always drawn.

Details: interaction between propranolol and the polyanionic methacrylic acid copolymer

**Q.** For `CC(C)NCC(O)COc1cccc2ccccc12` (stereo not shown) [propranolol, propranolol hydrochloride], which Hill coefficient is on record?
**A.** 1.5
